Results published in the NIST ThermoML archive (doi:10.1021/je400630f).

Assay: xn = mol fraction of the nth substance listed
Conditions: 100 kPa, Liquid; for viscosity: Capillary tube (Ostwald / Ubbelohde) method

CCCCCCCCCCO [decan-1-ol] + CCO
Conditions	mass density, 283.15 K [kg/m3]	mass density, 293.15 K [kg/m3]	mass density, 298.15 K [kg/m3]	mass density, 303.15 K [kg/m3]	mass density, 313.15 K [kg/m3]	viscosity, 283.15 K [mPa·s]	viscosity, 293.15 K [mPa·s]	viscosity, 298.15 K [mPa·s]	viscosity, 303.15 K [mPa·s]	viscosity, 313.15 K [mPa·s]
x2 = 0	836.6	829.9	826.5	823	816.2	22.06	14.5	11.47	9.61	6.9
x2 = 0.09979	835.2	828.4	825	821.5	814.6	18.94	12.7	10.22	8.604	6.221
x2 = 0.2	833.7	826.9	823.5	820	813	16.12	10.94	8.957	7.538	5.513
x2 = 0.3002	831.9	825.1	821.6	818.1	811.1	13.35	9.255	7.687	6.462	4.812
x2 = 0.3999	829.5	822.6	819.1	815.5	808.8	10.96	7.668	6.509	5.468	4.146
x2 = 0.5	827.7	820.6	817	813.5	806.4	8.705	6.278	5.387	4.547	3.51
x2 = 0.6003	824	816.8	813.2	809.5	802.1	6.674	5.013	4.346	3.726	2.92
x2 = 0.6999	820.1	812.8	808.8	805.4	797.9	4.92	3.832	3.374	2.947	2.352
x2 = 0.7997	814.6	807	803.1	799.3	791.5	3.54	2.73	2.459	2.195	1.813
x2 = 0.9	807.9	800	795.9	791.9	783.8	2.319	1.87	1.692	1.534	1.311

CCCCO [butan-1-ol] + CCO
Conditions	mass density, 283.15 K [kg/m3]	mass density, 293.15 K [kg/m3]	mass density, 298.15 K [kg/m3]	mass density, 303.15 K [kg/m3]	mass density, 313.15 K [kg/m3]	viscosity, 283.15 K [mPa·s]	viscosity, 293.15 K [mPa·s]	viscosity, 298.15 K [mPa·s]	viscosity, 303.15 K [mPa·s]	viscosity, 313.15 K [mPa·s]
x2 = 0	817.3	809.6	805.8	802.1	794.3	3.822	2.859	2.558	2.236	1.736
x2 = 0.1002	815.9	808.3	804.5	800.6	792.8	3.528	2.645	2.371	2.091	1.631
x2 = 0.2008	814.5	806.8	803	799.1	791.2	3.198	2.44	2.192	1.938	1.526
x2 = 0.3018	813.3	805.6	801.7	797.8	789.8	2.887	2.235	2.017	1.788	1.42
x2 = 0.4006	811.7	803.8	799.9	795.9	787.9	2.63	2.048	1.853	1.636	1.321
x2 = 0.5002	809.6	801.6	797.7	793.7	785.6	2.404	1.879	1.703	1.506	1.225
x2 = 0.6008	807.7	799.8	795.8	791.8	783.6	2.196	1.715	1.554	1.379	1.135
x2 = 0.7002	805.6	797.5	793.4	789.3	781	1.993	1.567	1.42	1.274	1.058
x2 = 0.7991	803.3	795.1	790.9	786.8	778.3	1.811	1.421	1.299	1.175	0.985
x2 = 0.8997	800.8	792.4	788.2	784.1	776	1.644	1.299	1.188	1.074	0.91

CCCCCO [pentan-1-ol] + CCO
Conditions	mass density, 283.15 K [kg/m3]	mass density, 293.15 K [kg/m3]	mass density, 298.15 K [kg/m3]	mass density, 303.15 K [kg/m3]	mass density, 313.15 K [kg/m3]	viscosity, 283.15 K [mPa·s]	viscosity, 293.15 K [mPa·s]	viscosity, 298.15 K [mPa·s]	viscosity, 303.15 K [mPa·s]	viscosity, 313.15 K [mPa·s]
x2 = 0	822.1	814.7	811.2	807.5	800	5.417	3.974	3.441	2.99	2.263
x2 = 0.1	820.6	813.2	810	805.8	798.3	4.879	3.595	3.154	2.741	2.1
x2 = 0.2	819.4	812	808.3	804.6	797	4.379	3.263	2.874	2.506	1.931
x2 = 0.2998	817.8	810.3	806.6	802.8	795.1	3.892	2.935	2.587	2.27	1.771
x2 = 0.3999	815.4	807.8	804.2	800.2	792.4	3.404	2.619	2.324	2.05	1.61
x2 = 0.4997	813.3	805.6	801.8	797.9	790	2.966	2.328	2.07	1.828	1.452
x2 = 0.6	811	803.2	799.6	795.4	787.4	2.564	2.04	1.833	1.628	1.312
x2 = 0.7	808.4	800.5	796.4	792.5	784.3	2.234	1.796	1.631	1.453	1.179
x2 = 0.8	805.3	797.3	793.7	789.1	780.8	1.938	1.583	1.435	1.285	1.062
x2 = 0.8999	802	793.7	790.4	785.3	776.8	1.693	1.381	1.256	1.141	0.956

CCCCCCCCCO [nonan-1-ol] + CCO
Conditions	mass density, 283.15 K [kg/m3]	mass density, 293.15 K [kg/m3]	mass density, 298.15 K [kg/m3]	mass density, 303.15 K [kg/m3]	mass density, 313.15 K [kg/m3]	viscosity, 283.15 K [mPa·s]	viscosity, 293.15 K [mPa·s]	viscosity, 298.15 K [mPa·s]	viscosity, 303.15 K [mPa·s]	viscosity, 313.15 K [mPa·s]
x2 = 0	835	828.1	824.7	821.3	814.3	17.44	11.63	9.519	7.806	5.668
x2 = 0.0999	834.1	827.2	823.8	820.3	813.3	14.81	10.17	8.427	6.931	5.108
x2 = 0.2	832	825.1	821.6	818.1	811	12.63	8.712	7.371	6.145	4.534
x2 = 0.3002	830	823.2	819.7	816.1	809	10.68	7.431	6.388	5.34	3.966
x2 = 0.4001	827.9	820.9	817.3	813.8	806.5	8.855	6.275	5.421	4.577	3.443
x2 = 0.4999	825.3	818.2	814.5	810.9	803.6	7.184	5.234	4.529	3.845	2.946
x2 = 0.6001	822.9	815.1	811.4	807.7	800.8	5.578	4.243	3.712	3.169	2.485
x2 = 0.6997	818.3	810.8	807	803.3	795.6	4.208	3.319	2.936	2.536	2.042
x2 = 0.7975	815	807.1	803.3	799.4	791.1	3.169	2.478	2.281	1.961	1.624
x2 = 0.8998	809.5	799.4	795.3	791.3	783	2.22	1.696	1.658	1.415	1.214
